Reference: PubChem BioAssay AID1963829 (Molecular Pharmacology Branch, DTP, NCI, 2024)

System: 935938-334-R-J1-PDC complex spheroid viability
Assay: Anticancer human tumor 935938-334-R-J1-PDC patient-derived small intestine adenocarcinoma cell line growth inhibition [POLQ]
Conditions: for IC50: curve of first compound; for viability, T/C: stronger effect = lower value; active means viability on the fitted dose curve at most 10% of control; inactive means the rest
Experimental: Multicellular complex tumor spheroid response to Polymerase (POL) inhibitors (novobiocin, ART-558, RP6685) in combination with a variety of drugs and investigational agents in selected tumor cell lines
The POL inhibitors (novobiocin, ART-558, and RP6685) were evaluated both individually and in combination with standard of care and investigational anticancer small molecules within a complex spheroid model of solid tumors. . Complex spheroids include a stromal component modeled by human endothelial cells (HUVEC) and fibroblasts modeled by human mesenchymal stem cells (MSCs). The concentration ranges selected for each drug and investigational agent were based upon clinically achievable concentrations if the clinical Cmax of the agent was known.
Compounds. The drugs and investigational agents: novobiocin (NSC847541), ART-558 (NSC835418), RP-6685 (NSC848927), peposertib (NSC802822), ceralasertib (NSC780249), elimusertib (NSC800525), camonsertib (NSC841442), AZD-1390 (NSC803789), olaparib (NSC753686), talazoparib (NSC767125), rucaparib (NSC756644), sotorasib (NSC818433), MRTX-1133 (NSC836407), SN-38 (NSC673596), topotecan (NSC609699), epotoside (NSC141540), doxorubicin (NSC123127), gemcitabine (NSC613327), 5-fluorouracil (NSC19893), paclitaxel (NSC125973), vemurafenib (NSC761431), MSA-2 (NSC828583), SN-011 (NSC837082), adavosertib (NSC754352), prexasertib (NSC758257), carboplatin (NSC241240) and oxaliplatin (NSC266046), were obtained from the National Cancer Institute (NCI) Developmental Therapeutics Program Chemical Repository (21). The FDA-approved anticancer drug set is available from the Developmental Therapeutics Program at https://dtp.cancer.gov/organization/dscb/obtaining/. […] The stock solutions were prepared in dimethyl sulfoxide (DMSO, Sigma-Aldrich, St. Louis, MO, cat. D2650), except for the platinum compounds which were prepared in saline (Quality Biological, Gaithersburg, MD, cat. 114-055-101), at 800-fold the tested concentration and stored at -70 degrees C prior to their use. All drugs and investigational agents were tested over a range starting from a high concentration at or near the clinical Cmax and decreasing in half-log increments. If the clinical Cmax for an agent had not been determined, the highest concentration tested was 10 microM, except for SN-38, which was tested at a high concentration of 1 microM.
Cell Culture. All cells were maintained in an incubator at 37 degrees C and 5% CO2 with 95% humidity. The PDC lines were cultured according to standard operating procedures established by the NCI PDMR (https://pdmr.cancer.gov). Table 3 of the manuscript, lists the cell lines along with the number of the three cell types plated to form the mct-spheroids and media for tumor cell growth. After thawing, all PDC lines, except 997537-175-T-J1-PDC and 415267-285-R-J2-PDC, were cultured in Matrigel-coated flasks prepared with a working solution of 1X Ham's F-12 nutrient mix, without supplementation (Thermo Fisher Scientific, cat. 11765054), 100 U/mL penicillin-streptomycin (Thermo Fisher Scientific, cat. 15140122), and 2.5% Matrigel (Corning Inc., Corning, NY, cat. 354248) for the first three passages. The two PDC lines 997537-175-T-J1-PDC and 415267-285-R-J2-PDC were cultured on uncoated flasks. The 857933-349-R-J2-PDC line was cultured in 6C/Colon 1B media containing advanced DMEM/F-12 (Thermo Fisher Scientific, cat. 12634028), 10 mM HEPES (Thermo Fisher Scientific, cat. 15630080), 1X GlutaMAX supplement (Thermo Fisher Scientific, cat. 35050061), 0.1 mg/mL primocin (InvivoGen, San Diego, CA, cat. ant-pm-2), 10% defined fetal bovine serum, heat inactivated (HyClone Laboratories Inc., Logan, UT, cat. SH30070.03HI), 50% L-WRN conditioned media (ATCC, cat. CRL-3276), 1.25 mM N-Acetyl-L-cysteine (Sigma-Aldrich, cat. A9165), 10 mM nicotinamide (Sigma-Aldrich, cat. N0636), 1X B-27 supplement (Thermo Fisher Scientific, cat. 17504044), 1X N-2 supplement (Thermo Fisher Scientific, cat. […]

[1] = second compound 0.0316 µM, first compound 0.0316 µM
[2] = second compound 0.0316 µM, first compound 0.1 µM
[3] = second compound 0.0316 µM, first compound 0.316 µM
[4] = second compound 0.0316 µM, first compound 1 µM
[5] = second compound 0.0316 µM, first compound 3.16 µM
[6] = second compound 0.0316 µM, first compound 10 µM
[7] = second compound 0.1 µM, first compound 0.0316 µM
[8] = second compound 0.1 µM, first compound 0.1 µM
[9] = second compound 0.1 µM, first compound 0.316 µM
[10] = second compound 0.1 µM, first compound 1 µM
[11] = second compound 0.1 µM, first compound 3.16 µM
[12] = second compound 0.1 µM, first compound 10 µM
[13] = second compound 0.316 µM, first compound 0.0316 µM
[14] = second compound 0.316 µM, first compound 0.1 µM
[15] = second compound 0.316 µM, first compound 0.316 µM
[16] = second compound 0.316 µM, first compound 1 µM
[17] = second compound 0.316 µM, first compound 3.16 µM
[18] = second compound 0.316 µM, first compound 10 µM
[19] = second compound 1 µM, first compound 0.0316 µM
[20] = second compound 1 µM, first compound 0.1 µM
[21] = second compound 1 µM, first compound 0.316 µM
[22] = second compound 1 µM, first compound 1 µM
[23] = second compound 1 µM, first compound 3.16 µM
[24] = second compound 1 µM, first compound 10 µM
[25] = second compound 3.16 µM, first compound 0.0316 µM
[26] = second compound 3.16 µM, first compound 0.1 µM
[27] = second compound 3.16 µM, first compound 0.316 µM
[28] = second compound 3.16 µM, first compound 1 µM
[29] = second compound 3.16 µM, first compound 3.16 µM
[30] = second compound 3.16 µM, first compound 10 µM
[31] = second compound 10 µM, first compound 0.0316 µM
[32] = second compound 10 µM, first compound 0.1 µM
[33] = second compound 10 µM, first compound 0.316 µM
[34] = second compound 10 µM, first compound 1 µM
[35] = second compound 10 µM, first compound 3.16 µM
[36] = second compound 10 µM, first compound 10 µM
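Further: spheroids exposed to drugs for seven days before viability read.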
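Wherever viability, T/C is given: 100% = DMSO vehicle control wells.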

C#Cc1c(F)ccc2cc(O)cc(-c3ncc4c(N5CC6CCC(C5)N6)nc(OCC56CCCN5CC(F)C6)nc4c3F)c12 (centres undefined) + COC1C(OC(N)=O)C(O)C(Oc2ccc3c(O)c(NC(=O)c4ccc(O)c(CC=C(C)C)c4)c(=O)oc3c2C)OC1(C)C
2.62 µM: IC50 (second compound 1 µM)
5.68 µM: IC50 (second compound 0.1 µM)
0.848 µM: IC50 (second compound 0.0316 µM)
2.92 µM: IC50 (second compound 10 µM)
1.84 µM: IC50 (second compound 0.316 µM)
inactive: viability, T/C [1] 84.6% | viability, T/C [2] 100% | viability, T/C [3] 70.6% | viability, T/C [4] 47.5% | viability, T/C [5] 47.1% | viability, T/C [6] 29.9% | viability, T/C [7] 76.3% | viability, T/C [8] 93.5% | viability, T/C [9] 111% | viability, T/C [10] 73.1% | viability, T/C [11] 61.5% | viability, T/C [12] 41% | viability, T/C [13] 106% | viability, T/C [14] 79.6% | viability, T/C [15] 121% | viability, T/C [16] 52% | viability, T/C [17] 62.6% | viability, T/C [18] 33.8% | viability, T/C [19] 92.8% | viability, T/C [20] 81.2% | viability, T/C [21] 75.8% | viability, T/C [22] 65% | viability, T/C [23] 42% | viability, T/C [24] 44.1% | viability, T/C [25] 96.7% | viability, T/C [26] 72% | viability, T/C [27] 75.9% | viability, T/C [28] 86.4% | viability, T/C [29] 43.1% | viability, T/C [30] 48.6% | viability, T/C [31] 65.6% | viability, T/C [32] 97.9% | viability, T/C [33] 77.4% | viability, T/C [34] 57.2% | viability, T/C [35] 54.8% | viability, T/C [36] 43.9%
6.23 µM: IC50 (second compound 3.16 µM)

COc1cc2cc(C(=O)CCC(=O)O)sc2cc1OC + COC1C(OC(N)=O)C(O)C(Oc2ccc3c(O)c(NC(=O)c4ccc(O)c(CC=C(C)C)c4)c(=O)oc3c2C)OC1(C)C
> 10 µM: IC50 (second compound 0.0316 µM) | IC50 (second compound 0.1 µM) | IC50 (second compound 0.316 µM) | IC50 (second compound 1 µM) | IC50 (second compound 3.16 µM) | IC50 (second compound 10 µM)
inactive: viability, T/C [1] 101% | viability, T/C [2] 98.3% | viability, T/C [3] 113% | viability, T/C [4] 83.7% | viability, T/C [5] 108% | viability, T/C [6] 110% | viability, T/C [7] 103% | viability, T/C [8] 118% | viability, T/C [9] 97.9% | viability, T/C [10] 110% | viability, T/C [11] 92.4% | viability, T/C [12] 135% | viability, T/C [13] 128% | viability, T/C [14] 131% | viability, T/C [15] 109% | viability, T/C [16] 98% | viability, T/C [17] 112% | viability, T/C [18] 105% | viability, T/C [19] 99.2% | viability, T/C [20] 98.3% | viability, T/C [21] 90.8% | viability, T/C [22] 112% | viability, T/C [23] 108% | viability, T/C [24] 83.1% | viability, T/C [25] 106% | viability, T/C [26] 96.1% | viability, T/C [27] 96.9% | viability, T/C [28] 101% | viability, T/C [29] 109% | viability, T/C [30] 95.4% | viability, T/C [31] 171% | viability, T/C [32] 118% | viability, T/C [33] 98% | viability, T/C [34] 101% | viability, T/C [35] 80.8% | viability, T/C [36] 109%
